Data set [1] deals with HCVcc. Kind of data set: Anti-HCV activity: HCVcc expressing Renilla luciferase in Huh-7.5.1 cells, luciferase readout. Format: cell-based, hepatitis C virus. How it is done:
Huh-7.5.1 cells were maintained in Dulbecco's modified Eagle's medium (DMEM) containing 4.5 g/l D-glucose, 4 mM L-glutamine (Life Technologies), supplemented with 100 units/mL penicillin (Life Technologies), 100 μg/mL streptomycin (Life Technologies), non-essential amino acids (Sigma-Aldrich), 1 mM Hepes (Life Technologies) and 10% heat-inactivated fetal calf serum (FCS, Hyclone). […] In cell viability and HCV in vitro propagation experiments, the final concentration of DMSO was systematically adjusted to 0.1%. We checked that this amount of DMSO had no effect on the biological cycle of HCVcc in vitro (data not shown).
(§1) HCVcc was generated from the FL-J6/JFH-5’C19Rluc2AUbi construct, a monocistronic, full-length HCV genome that expresses Renilla luciferase. It was produced and titrated as described elsewhere, except for the readout for luciferase activity measurement. Cell viability was evaluated with the Cell Proliferation Reagent WST-1 (Roche), according to the manufacturer’s instructions. Luciferase assays were performed according to the manufacturer’s instructions (Promega) and measurements were performed on a Centro XS3 LB960 luminometer (Berthold Technologies).
(§2) Cell viability and viral replication data from at least three independent experiments were analyzed. The IC50 values of the compounds were determined from dose-response curves generated with seven to 12 concentrations of each compound. Curves were fitted to the data points by nonlinear regression analysis and IC50 values were interpolated from the resulting curves with GraphPad Prism 5.00 software.
We evaluated the anti-HCV activity of the 10 atranorin-related compounds, using a virus grown in cell culture (HCVcc) with a modification of its genome resulting in expression of the Renilla luciferase reporter gene. […] These two compounds are known to interfere with the entry and replication steps of viral cycle, respectively. The maximum dose of each tested compound was 100 μM, because most of these molecules became insoluble in aqueous solution at higher concentrations. The first experimental procedure used involved the preincubation of human hepatic Huh-7.5.1 cells for 1 h with various doses of the molecules. The cells were then cultured in the presence of both the molecules tested and the virus, for an additional 48 h. At the end of the incubation period, we assessed cell viability and viral replication. This protocol made it possible to test the effects of molecules on both virus entry and replication. […] Remarkably, compound 6 tended to give a slightly, but reproducibly higher viability signal when used at high doses, with a peak at about 50 μM. […] At concentrations greater than 50 μM, cytotoxic effects emerged, as shown by the decrease of the viability signal.

Another data set can be described thus: in vitro. To be noted: human, mean ± SEM. Format: cell-based, human. As for the experimental part:
(§3) Huh-7.5.1 cells were maintained in Dulbecco's modified Eagle's medium (DMEM) containing 4.5 g/l D-glucose, 4 mM L-glutamine (Life Technologies), supplemented with 100 units/mL penicillin (Life Technologies), 100 μg/mL streptomycin (Life Technologies), non-essential amino acids (Sigma-Aldrich), 1 mM Hepes (Life Technologies) and 10% heat-inactivated fetal calf serum (FCS, Hyclone). […] In cell viability and HCV in vitro propagation experiments, the final concentration of DMSO was systematically adjusted to 0.1%.
as §1, §2
(§4) We evaluated the anti-HCV activity of the 10 atranorin-related compounds, using a virus grown in cell culture (HCVcc) with a modification of its genome resulting in expression of the Renilla luciferase reporter gene. […] These two compounds are known to interfere with the entry and replication steps of viral cycle, respectively. […] The first experimental procedure used involved the preincubation of human hepatic Huh-7.5.1 cells for 1 h with various doses of the molecules. The cells were then cultured in the presence of both the molecules tested and the virus, for an additional 48 h. At the end of the incubation period, we assessed cell viability and viral replication. This protocol made it possible to test the effects of molecules on both virus entry and replication.

The next data set deals with Huh-7.5.1 cells. Kind of data set: in vitro. It is filed as cell-based, human. The conditions noted are these: half-maximal cytotoxicity concentration, Huh-7.5.1 cells, 48 h; mean ± SEM; maximum dose tested 100 μM. As for the experimental part:
as §3, §1, §2, §4

Data set [2] has as its system HCVcc. Kind of data set: Targeted stage of HCV life cycle: compounds present during inoculation (I), replication (R) or both (I/R), luciferase readout. The conditions noted are these: compounds present during I (17 h), R (30 h) or I/R. It is filed as cell-based, hepatitis C virus. How it is done:
(§5) An experimental procedure was designed to determine the inhibitor class (entry or replication) to which compounds 1, 5 and 6 belonged. HCVcc were added to the cell culture during a limited time window (around 17 h). The cells were then washed to eliminate viruses from the inoculum and viral replication was allowed to take place for an additional 30 h. The selected compounds were present in the culture medium during inoculation (I), replication (R), or both these phases (inoculation and replication, I/R). […] In terms of antiviral activity, we expected to obtain two inhibition profiles for the luminescence signal, depending on the step of the viral lifecycle targeted by the drug (Fig. 4B). […] The inhibitory effect on the establishment of replication (R conditions) observed at high doses was probably due principally to the inhibition of new infection cycles initiated by virions produced by cells infected with the inoculum. A different profile was obtained for telaprevir. […] Its presence in the medium from inoculation onwards prevented the priming of the infection process at the viral polyprotein maturation step, which normally takes place after the translation of the HCV genome issued from the infecting virus. This maturation step is also repeated during the replication phase, for amplification of the viral genome and virion assembly. It is therefore not surprising that inhibition was strongest when telaprevir was present throughout the viral lifecycle (I/R), as there was probably an additive effect. […] The chemical group in this position seems to influence not only the potency of the molecule, but also its mechanism of action. Further studies are required to identify the processes involved because, for example, we cannot rule out a role in the inhibition of viral entry for compounds 5 and 6, even though they appeared to act as replication inhibitors in this experiment. It could be hypothesized that the replacement of a methyl or hydroxymethyl by an aldehyde group in position C-3 would lead to a loss of replication inhibition, but maintenance of the ability to inhibit viral entry.
(§6) Fig 4 Effects of compounds 1, 5 and 6 on cell viability and HCV propagation in vitro. One day after seeding at 50,000 cells/cm^2, Huh-7.5.1 cells were infected with HCVcc at a MOI ~ 0.03 for 17 h (inoculation phase: I). The inoculum was removed and cell cultures were washed before the addition of new medium and incubation for an additional 30 h (replication phase: R). Compounds were present at various concentrations either during both phases (I/R: black circles and solid lines) or during only one phase (I: black squares and dotted lines; R: black triangles and dashed lines). (A) Cell viability and (B) viral replication were assessed at the end of the incubation period. Results are expressed as percentages (mean ± SEM; n = 3) of the mean values obtained for the respective control cultures, in which cells were incubated with vehicle (0.1% DMSO) alone.

The nature of data set [3]: Cell viability in the inoculation/replication (I, R, I/R) procedure. Format: cell-based, human. The conditions noted are these: human; I, R, I/R incubation conditions. As for the experimental part: as §5
as §6, with “Compounds were present at various concentrations either during both phases (I/R: black circles and solid lines) or during only one phase (I: black squares and dotted lines; R: black triangles and dashed lines).” left out

Entries after “also recorded” stand apart in the source; their conditions may differ.

For orientation: IC50 means the concentration that gives 50% inhibition. Low values mean greater potency in that assay, high ones weaker potency in that assay. What is called CC50 is the concentration giving 50% cytotoxicity. A higher CC50 goes with lower toxicity to the cells. What is called viability is a read-out of living cells in per cent, often relative to untreated cells. For the compound `COC(=O)c1c(C)cc(OC(=O)c2c(C)cc(O)c(CO)c2O)c(C)c1O` [Compound 5, Methyl-8-hydroxy-4-O-demethylbarbatate], in the data set on HCVcc [1] (Hepatitis C virus, Huh-7.5.1 cells infected with HCVcc, 1 h preincubation then 48 h with virus, mean ± SEM, three experiments), half-maximal inhibition (IC50) was put at 11.8 ± 1.1 µM. In the data set with HCVcc [1] (ratio of CC50 to IC50), the “SI (selectivity index)” value was determined as 8.9. In “in vitro” (half-maximal cytotoxicity concentration, Huh-7.5.1 cells, 48 h, maximum dose tested 100 μM), this compound had a CC50 at 48 h of 106 µM. For the same compound, the viability at 48 h, 50 µM in “in vitro” (50 μM, percentage of vehicle (0.1% DMSO) control, n = 3) worked out at 88.4 ± 7.3%. In “in vitro” (100 μM, percentage of vehicle (0.1% DMSO) control, n = 3), this compound showed a viability at 48 h, 100 µM of 55.8 ± 5.9%. Besides, the CC50 was 106 ± 7.3 µM in the data set on Huh-7.5.1 cells and approximately 100 µM in data set [3]. In addition, in the data set on HCVcc [2], the “Inhibition profile / step of HCV lifecycle targeted” value is listed as “interfered with viral replication; also recorded: profiles typical of replication inhibitors”.

The record behind these values is article PMC4368788, “Depsides: Lichen Metabolites Active against Hepatitis C Virus” (PLoS ONE, 2015).
